This is an account of results in ChEMBL document CHEMBL3045074, “Synthesis and anticonvulsant activity of novel quinazolin-4(3H)-one derived pyrazole analogs” (Med Chem Res, 2013).

In data set [1] the test system is Rattus norvegicus. Nature of the data set: Anticonvulsant activity in Wistar Rattus norvegicus (rat) assessed as protection against maximal electroshock-induced seizures at 30 mg/kg, po after 0.5 hr. It is filed as functional.
In data set [2] the test system is Rattus norvegicus. Nature of the data set: Anticonvulsant activity in Wistar Rattus norvegicus (rat) assessed as protection against maximal electroshock-induced seizures at 30 mg/kg, po after 1 hr. Type of data set: functional.
Data set [3] relates to Mus musculus. Nature of the data set: Anticonvulsant activity in Swiss albino Mus musculus (mouse) assessed as protection against maximal electroshock-induced seizures at 30 mg/kg, ip after 4 hr. It is filed as functional, organism-based. Details: dose 30 mg/kg.
The subject of data set [4] is Mus musculus. Nature of the data set: Anticonvulsant activity in Swiss albino Mus musculus (mouse) assessed as protection against subcutaneous pentylenetetrazole-induced seizure at 300 mg/kg, ip after 4 hr. It is filed as functional, organism-based. Details: dose 300 mg/kg.
Data set [5] concerns Rattus norvegicus. Briefly: Anticonvulsant activity in Wistar Rattus norvegicus (rat) assessed as protection against maximal electroshock-induced seizures at 30 mg/kg, po after 0.25 hr. It is filed as functional.
Data set [6] has as its system Mus musculus. Briefly: Neurotoxicity in Swiss albino Mus musculus (mouse) assessed as minimal motor impairment at 100 mg/kg, ip after 4 hr by rotorod test. Type of data set: toxicity, organism-based. Details: dose 100 mg/kg, route intraperitoneal. The following applies: in vivo.
Data set [7] concerns Rattus norvegicus. Nature of the data set: Anticonvulsant activity in Wistar Rattus norvegicus (rat) assessed as protection against maximal electroshock-induced seizures at 30 mg/kg, po after 4 hr. Type of data set: functional.
Data set [8] relates to Mus musculus. Nature of the data set: Anticonvulsant activity in Swiss albino Mus musculus (mouse) assessed as protection against subcutaneous pentylenetetrazole-induced seizure at 300 mg/kg, ip after 0.5 hr. It is filed as functional, organism-based. Set-up: dose 300 mg/kg.
The test system of data set [9] is Mus musculus. Briefly: Anticonvulsant activity in Swiss albino Mus musculus (mouse) assessed as protection against maximal electroshock-induced seizures at 30 mg/kg, ip after 0.5 hr. Details: dose 30 mg/kg. Type of data set: functional, organism-based.
For data set [10], the system named is Mus musculus. Nature of the data set: Neurotoxicity in Swiss albino Mus musculus (mouse) assessed as minimal motor impairment at 100 mg/kg, ip after 0.5 hr by rotorod test. It is filed as toxicity, organism-based. Set-up: dose 100 mg/kg, route intraperitoneal. The following applies: in vivo.
For data set [11], the system named is Rattus norvegicus. Briefly: Neurotoxicity in Wistar Rattus norvegicus (rat) assessed as minimal motor impairment at 30 mg/kg, po after 0.25 to 4 hr by rotorod test. Type of data set: toxicity, organism-based. Details: dose 30 mg/kg, route oral. To be noted: in vivo.
Data set [12] relates to Rattus norvegicus. Nature of the data set: Anticonvulsant activity in Wistar Rattus norvegicus (rat) assessed as protection against maximal electroshock-induced seizures at 30 mg/kg, po after 2 hr. Type of data set: functional.
Data set [13] relates to Mus musculus. Briefly: Anticonvulsant activity in Swiss albino Mus musculus (mouse) assessed as protection against subcutaneous pentylenetetrazole-induced seizure at 30 to 300 mg/kg, ip after 0.5 hr. Type of data set: functional, organism-based.
For data set [14], the system named is Mus musculus. Nature of the data set: Anticonvulsant activity in Swiss albino Mus musculus (mouse) assessed as protection against maximal electroshock-induced seizures at 300 mg/kg, ip after 4 hr. It is filed as functional, organism-based. Details: dose 300 mg/kg.
Data set [15] concerns Mus musculus. Nature of the data set: Neurotoxicity in Swiss albino Mus musculus (mouse) assessed as minimal motor impairment at 300 mg/kg, ip after 0.5 hr by rotorod test. Set-up: dose 300 mg/kg, route intraperitoneal. It is filed as toxicity, organism-based. To be noted: in vivo.
Data set [16] concerns Mus musculus. Briefly: Anticonvulsant activity in Swiss albino Mus musculus (mouse) assessed as protection against maximal electroshock-induced seizures at 100 mg/kg, ip after 0.5 hr. It is filed as functional, organism-based. Set-up: dose 100 mg/kg.
The test system of data set [17] is Mus musculus. Nature of the data set: Neurotoxicity in Swiss albino Mus musculus (mouse) assessed as minimal motor impairment at 300 mg/kg, ip after 4 hr by rotorod test. Set-up: dose 300 mg/kg, route intraperitoneal. Type of data set: toxicity, organism-based. To be noted: in vivo.

The source made the active and inactive calls. The calls are words filed in the database; no cut-off is given here.

As for `O=C1NC(=O)C(c2ccccc2)(c2ccccc2)N1` [PHENYTOIN], the Activity with Rattus norvegicus [1] is 100%; in the data set with Rattus norvegicus [2], 75%; in the data set with Rattus norvegicus [5], 25%; in the data set on Mus musculus [6], “Toxic”; in the data set with Rattus norvegicus [7], 75%; in the data set with Mus musculus [10], “Toxic”. Besides, the Activity result is “Non-toxic” with Rattus norvegicus [11] and 75% with Rattus norvegicus [12]. Moreover, the outcome in the data set with Mus musculus [3] and in the data set on Mus musculus [9] was Active. For the same molecule, the result in the data set on Mus musculus [4] and with Mus musculus [8] was inactive.

For the molecule `Cc1ccc(C2CC(c3ccccc3)=NN2C(=O)c2ccc(-n3c(C)nc4c(Br)cc(Br)cc4c3=O)cc2)cc1` (centres undefined), the Activity is on record as 50% with Rattus norvegicus [1]; 50% in the data set with Rattus norvegicus [2]; 25% in the data set on Rattus norvegicus [5]; 75% in the data set with Rattus norvegicus [7]; “Non-toxic” in the data set with Mus musculus [15]; “Toxic” with Mus musculus [17]. Moreover, the Activity entry is given as “Non-toxic” in the data set on Rattus norvegicus [11] and 75% with Rattus norvegicus [12]. For the same molecule, the outcome in the data set on Mus musculus [4], in the data set with Mus musculus [13], with Mus musculus [14] and in the data set with Mus musculus [16] was Active.
